Measurements reported in US6465465B1, “Process for the treatment of erectile dysfunction and product therefor” (Arzneimittelwerk Dresden GmbH, priority 2000, dated 2002).

Key:
[1] = target: T1, phosphodiesterase 5 (Homo sapiens, UniProt O76074); experiment: PDE 5 activity in enzyme preparations from human thrombocytes; assay type: biochemical; settings: human thrombocyte enzyme, 0.5 μM [3H]cGMP; read-out: IC50, inhibition of phosphodiesterase 5
T1 construct: The thrombocytes are lysed by ultrasound and used in the PDE 5 assay; from tissue; host or cells: human thrombocytes (platelets) from citrate-anticoagulated blood, lysed by ultrasound
Method: PDE 5 activity is determined in enzyme preparations from human thrombocytes. Human blood was anti-coagulated with citrate. By centrifuging at 700 g for 20 minutes at room temperature, the thrombocyte-rich plasma in the supernatant is separated from the erythrocytes and leukocytes. The thrombocytes are lysed by ultrasound and used in the PDE 5 assay. With a few modifications, the phosphodiesterase activity is determined by the method described by Thompson et al. (Thompson, W. J., Appleman, M. M., Assay of cyclic nucleotide phosphodiesterase and resolution of multiple molecular forms of the enzyme, Adv. Cycl. Nucl. Res. 1979, 10, 69-92). The reaction mixtures contain 50 mM of tris HCl (pH 7.4), 5.5 mM of MgCl2, the inhibitors in variable concentrations, the enzyme preparation and the fuirther components necessary for determining the individual isoenzymes PDE 5 (see below). The reaction is started by the addition of the substrate, 0.5 μM of [^3H] cGMP (approximately 6,000 CPM/test). The final volume is […]. Test substances are prepared as stock solutions in DMSO. The DMSO concentration in the reaction mixture is 1% v/v. The PDE 5 activity is not affected by this concentration of DMSO. After the reaction is started by the addition of substrate, the samples are incubated for 30 minutes at 37° C. The reaction is stopped by heating the test tubes for 2 minutes at 110° C. The samples remain for a further 10 minutes in ice. The addition of 30 μL of 5′-nucleotidase (1 mg/mL, from a Crotalus adamanteus snake poison suspension) is followed by an incubation for 10 minutes at 37° C. The samples are stopped on ice. After the addition of 400 μL of a (1:1:1) mixture of Dowex, water and ethanol, the samples are mixed well and incubated once again for 15 minutes on ice. The reaction vessels are centrifuged for 20 minutes at 3,000 g. Subsequently, 200 μL aliquots of the supernatant are transferred directly to scintillation vessels. After the addition of 3 mL of scintillator, the samples are measured in the Betacounter. The in each case nonspecific enzyme activities are determined in the presence of 100 μM of IBMX for the determination of the PDE 5 and subtracted from the test values.

[2] = system: human corpus cavernosum tissue; experiment: Influencing cAMP and cGMP levels in human corpus cavernosum strips; assay type: cell-based; settings: 1.0 μmoles/L, 10 minutes
Method: (§1) Strips of human atrium and human corpus cavernosum are incubated for 10 minutes with the test compounds at a concentration of 1.0 μmoles/L The preparations are frozen with liquid nitrogen and the resulting levels of the cyclic nucleotides are determined.

[3] = system: human atrium tissue; experiment: Influencing cAMP and cGMP levels in human atrium strips; assay type: cell-based; settings: 1.0 μmoles/L, 10 minutes
Method: as §1

[4] = system: Rat fetal lung fibroblast cells (RFL-6); experiment: Reinforcement of NO donor-induced intracellular cGMP increase in rat fetal lung fibroblasts; assay type: cell-based; settings: RFL-6 cells
Excerpt: Rat fetal lung fibroblast cells (RFL-6) represent a suitable medium for investigating influence of the action of NO on the intracellular cGNP level (Ishii et al. 1991). The basic mechanism can be transferred to the smooth vascular musculature of the corpus cavemosum.
As a fuinction of the concentration, the inventive compounds reinforce the increase in the intracellular cGXD level induced by the NO donor S-nitroso-N-acetyl-D,L-penicillamine.

[5] = system: human corpus cavernosum strips; experiment: In vitro relaxation of human corpus cavernosum pre-contracted with noradrenalin; assay type: cell-based; settings: organ bath
Method: Strips of human corpus cavernosum are pre-contracted in an organ bath with noradrenalin. For test compounds, the relaxation is determined as a function of the concentration.

Compound	IC50 [1] [nM]	melting point [°C]	further results
5-(2,6-dichlrobenzyl)-1-ethyl-8-methoxy-3-methyl-imidazol[1,5-a]-pyrido[3,2-e]pyrazinone [Example 10]	132		
CCCc1nc(C)c2c(=O)n(Cc3c(F)cccc3F)c3ccc(OC)nc3n12 [Example 15, 5-(2,6-difluorobenzyl)-8-methoxy-3-methyl-1-propyl-imidazo[1,5-a]-pyrido[3,2-e]pyrazinone]	2	171 to 172	
CCc1nc(C)c2c(=O)n(Cc3ccc(F)cc3)c3ccc(OC)nc3n12 [Example 8]	126	189 to 191	
CCc1nc(C)c2c(=O)n(Cc3ccc(OC)cc3)c3ccc(OC)nc3n12 [Example 7, 1-ethyl-8-methoxy-5-(4-methoxybenzyl)-8-methoxy-3-methyl-imidazo[1,5-a]-pyrido[3,2-e]pyrazinone]	104	156 to 158	
CCc1nc(C)c2c(=O)n(Cc3c(F)cccc3F)c3ccc(OC)nc3n12 [Example 12, 5-(2,6-difluorobenzyl)-1-ethyl-8-methoxy-3-methyl-imidazo[1,5-a]-pyrido[3,2-e]pyrazinone]	38	177 to 180	
CCCc1nc(C)c2c(=O)n(Cc3c(F)ccc(F)c3F)c3ccc(OC)nc3n12 [Example 16, 8-methoxy-3-methyl-1-propyl-5-(2,3,6-trifluorobenzyl)-imidazo[1,5-a]-pyrido[3,2-e]pyrazinone]	5	197 to 199	
CCc1nc(C)c2c(=O)n(Cc3c(F)cccc3Cl)c3ccc(OC)nc3n12 [Example 11, 5-(2-chloro-6-fluorobenzyl)-1-ethyl-8-methoxy-3-methyl-imidazo[1,5-a]-pyrido[3,2-e]pyrazinone]	19	197 to 200	increase of cAMP level [2]: 80%; increase of cGMP level [2]: 214%; increase of cAMP level [3]: 11%; increase of cGMP level [3]: 247%
CCCc1nc(C)c2c(=O)n(Cc3c(F)cccc3Cl)c3ccc(OC)nc3n12 [Example 14, 5-(2-chloro-6-fluorobenzyl)-8-methoxy-3-methyl-1-propyl-imidazo[1,5-a]-pyrido[3,2-e]pyrazinone]	8	159 to 162	
CCc1nc(C)c2c(=O)n(Cc3ccccc3F)c3ccc(OC)nc3n12 [Example 5, 1-ethyl-5-(2-fluorobenzyl)-8-methoxy-3-methyl-imidazo[1,5-a]-pyrido[3,2-e]pyrazinone]	59	186 to 187	
CCc1nc(C)c2c(=O)n(Cc3ccc(Cl)cc3)c3ccc(OC)nc3n12 [Example 9, 5-(4-chlorobenzyl)-1-ethyl-8-methoxy-3-methyl-imidazo[1,5-a]-pyrido[3,2-e]pyrazinone]	112	201 to 202	
5-cyclohexyl-1-ethyl-8-methoxy-3-methyl-imidazo[1,5-a]-pyrido[3,2-e]pyrazinone [Example 1]	25		
CCc1nc(C)c2c(=O)n(Cc3c(F)ccc(F)c3F)c3ccc(OC)nc3n12 [Example 13, 1-ethyl-8-methoxy-3-methyl-5-(2,3,6-trifluorobenzyl)-imidazo[1,5-a]-pyrido[3,2-e]pyrazinone]	16	183 to 185	effectiveness relative to the nonspecific PDE inhibitor IBMX ([4]; cGMP level increase): 1000 times; increase in the intracellular cGMP level ([4]; compound at 0.10 μmoles/l, NO donor S-nitroso-N-acetyl-D,L-penicillamine): significantly induces an increase; EC50 [5]: 150 nM
CCCc1nn(C)c2c(=O)[nH]c(-c3cc(S(=O)(=O)N4CCN(C)CC4)ccc3OCC)nc12 [sildenafil, reference compound]			increase of cAMP level [2]: 238%; increase of cGMP level [2]: 15%; increase of cAMP level [3]: 240%; increase of cGMP level [3]: 147%
CCc1nc(C)c2c(=O)n(Cc3ccccc3)c3ccc(OC)nc3n12 [Example 2, 5-benzyl-1-ethyl-8-methoxy-3-methyl-imidazo[1,5-a]-pyrido[3,2-e]pyrazinone]	203	166 to 167	
